Reference: PMC9736855, “Discovery of 3-Amino-1H-pyrazole-Based Kinase Inhibitors to Illuminate the Understudied PCTAIRE Family” (International Journal of Molecular Sciences, 2022)

What was measured:
Experiment in all cases: NanoBRET
Type in all cases: cell-based
CDK2/Cyclin A1 = target: T1, CDK2/Cyclin A1 (Homo sapiens, UniProt P24941); conditions: read-out: NanoBRET EC50 ± SEM CDK2/Cyclin A1
T1 construct: Full-length kinases were obtained as plasmids cloned in frame with a terminal NanoLuc-fusion; CS1810C172 (CCNA1); host or cells: HEK293T
Experimental: (§1) The assay was performed as described previously. In brief: Full-length kinases were obtained as plasmids cloned in frame with a terminal NanoLuc-fusion (Promega, Madison, WI, USA), as specified in table (Table S6). Plasmids were transfected into HEK293T cells using FuGENE HD (Promega, E2312) and proteins were allowed to express for 20h. Serially diluted inhibitor and NanoBRET Kinase Tracer (Promega) at a concentration determined previously as the KD,app (Table S5) were pipetted into white 384-well plates (Greiner 781207) using an Echo acoustic dispenser (Labcyte, San Jose, CA, USA). The corresponding protein-transfected cells were added and reseeded at a density of 2.5 × 10^5 cells/mL after trypsinization and resuspending in Opti-MEM without phenol red (Life Technologies, Carlsbad, CA, USA). The system was allowed to equilibrate for 2 h at 37 °C/5% CO2 prior to BRET measurements. To measure BRET, NanoBRET NanoGlo Substrate + Extracellular NanoLuc Inhibitor (Promega, N2540) was added as per the manufacturer’s protocol, and filtered luminescence was measured on a PHERAstar plate reader (BMG Labtech, Ortenberg, Germany) equipped with a luminescence filter pair (450 nm BP filter (donor) and 610 nm LP filter (acceptor)). Competitive displacement data were then graphed using GraphPad Prism 9 software using a normalized 3-parameter curve fit with the following equation: Y = 100/(1 + 10^(X–LogEC50)).

CDK3/Cyclin E2 = target: T2, CDK3/Cyclin E2 (Homo sapiens, UniProt Q00526); conditions: read-out: NanoBRET EC50 ± SEM CDK3/Cyclin E2
T2 construct: Full-length kinases were obtained as plasmids cloned in frame with a terminal NanoLuc-fusion; CCNE2: 'Promega', no number; host or cells: HEK293T
Experimental: as §1

CDK14/Cyclin Y = target: T3, CDK14/Cyclin Y (Homo sapiens, UniProt O94921); conditions: read-out: NanoBRET EC50 ± SEM CDK14/Cyclin Y
T3 construct: Full-length kinases were obtained as plasmids cloned in frame with a terminal NanoLuc-fusion; CS1810C178 (CCNY); host or cells: HEK293T
Experimental: as §1

CDK2/Cyclin E1 = target: T4, CDK2/Cyclin E1 (Homo sapiens, UniProt P24941); conditions: read-out: NanoBRET EC50 ± SEM CDK2/Cyclin E1
T4 construct: Full-length kinases were obtained as plasmids cloned in frame with a terminal NanoLuc-fusion; CS1810C171 (CCNE1); host or cells: HEK293T
Experimental: as §1

CDK11B/Cyclin L2 = CDK11B/Cyclin L2 (Homo sapiens, UniProt P21127); conditions: read-out: NanoBRET EC50 ± SEM CDK11B/Cyclin L2
Experimental: as §1

CDK15/Cyclin Y = target: T5, CDK15/Cyclin Y (Homo sapiens, UniProt Q96Q40); conditions: read-out: NanoBRET EC50 ± SEM CDK15/Cyclin Y
T5 construct: Full-length kinases were obtained as plasmids cloned in frame with a terminal NanoLuc-fusion; CS1810C178 (CCNY); host or cells: HEK293T
Experimental: as §1

CDK11B/Cyclin K = CDK11B/Cyclin K (Homo sapiens, UniProt P21127); conditions: read-out: NanoBRET EC50 ± SEM CDK11B/Cyclin K
Experimental: as §1

CDK11A/Cyclin K = target: T6, CDK11A/Cyclin K (Homo sapiens, UniProt Q9UQ88); conditions: read-out: NanoBRET EC50 ± SEM CDK11A/Cyclin K
T6 sequence (Q9UQ88 1-783): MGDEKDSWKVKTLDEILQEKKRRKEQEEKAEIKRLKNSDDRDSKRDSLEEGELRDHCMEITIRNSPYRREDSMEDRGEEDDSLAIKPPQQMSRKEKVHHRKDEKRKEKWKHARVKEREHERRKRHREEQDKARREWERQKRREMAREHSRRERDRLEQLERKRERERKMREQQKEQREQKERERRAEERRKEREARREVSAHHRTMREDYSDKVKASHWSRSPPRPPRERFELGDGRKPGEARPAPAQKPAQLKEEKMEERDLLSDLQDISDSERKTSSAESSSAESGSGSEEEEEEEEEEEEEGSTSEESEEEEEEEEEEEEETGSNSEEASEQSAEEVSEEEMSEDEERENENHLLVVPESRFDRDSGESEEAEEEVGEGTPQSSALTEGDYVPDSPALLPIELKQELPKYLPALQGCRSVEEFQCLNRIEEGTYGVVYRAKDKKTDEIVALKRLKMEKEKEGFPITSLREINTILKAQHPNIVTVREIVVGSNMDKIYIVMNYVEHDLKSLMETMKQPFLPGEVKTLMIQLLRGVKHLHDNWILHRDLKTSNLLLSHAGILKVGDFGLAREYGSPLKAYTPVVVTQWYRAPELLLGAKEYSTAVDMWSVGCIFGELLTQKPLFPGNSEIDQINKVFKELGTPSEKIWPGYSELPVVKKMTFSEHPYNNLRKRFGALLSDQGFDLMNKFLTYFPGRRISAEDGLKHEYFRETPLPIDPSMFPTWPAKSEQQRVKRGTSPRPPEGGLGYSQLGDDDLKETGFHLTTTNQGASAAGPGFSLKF
Experimental: as §1

CDK6/Cyclin D3 = target: T7, CDK6/Cyclin D3 (Homo sapiens, UniProt Q00534); conditions: read-out: NanoBRET EC50 ± SEM CDK6/Cyclin D3
T7 construct: Full-length kinases were obtained as plasmids cloned in frame with a terminal NanoLuc-fusion; CS1810C87 (CCND3); host or cells: HEK293T
Experimental: as §1

CDK2/Cyclin A2 = target: T8, CDK2/Cyclin A2 (Homo sapiens, UniProt P24941); conditions: read-out: NanoBRET EC50 ± SEM CDK2/Cyclin A2
T8 construct: Full-length kinases were obtained as plasmids cloned in frame with a terminal NanoLuc-fusion; CCNA2: 'Promega', no number; host or cells: HEK293T
Experimental: as §1

CDK13/Cyclin K = target: T9, CDK13/Cyclin K (Homo sapiens, UniProt Q14004); conditions: read-out: NanoBRET EC50 ± SEM CDK13/Cyclin K
T9 construct: Full-length kinases were obtained as plasmids cloned in frame with a terminal NanoLuc-fusion; CS1810C93 (CCNK); host or cells: HEK293T
Experimental: as §1

T5 sequence (Q96Q40 whole entry, the tested form may be a part): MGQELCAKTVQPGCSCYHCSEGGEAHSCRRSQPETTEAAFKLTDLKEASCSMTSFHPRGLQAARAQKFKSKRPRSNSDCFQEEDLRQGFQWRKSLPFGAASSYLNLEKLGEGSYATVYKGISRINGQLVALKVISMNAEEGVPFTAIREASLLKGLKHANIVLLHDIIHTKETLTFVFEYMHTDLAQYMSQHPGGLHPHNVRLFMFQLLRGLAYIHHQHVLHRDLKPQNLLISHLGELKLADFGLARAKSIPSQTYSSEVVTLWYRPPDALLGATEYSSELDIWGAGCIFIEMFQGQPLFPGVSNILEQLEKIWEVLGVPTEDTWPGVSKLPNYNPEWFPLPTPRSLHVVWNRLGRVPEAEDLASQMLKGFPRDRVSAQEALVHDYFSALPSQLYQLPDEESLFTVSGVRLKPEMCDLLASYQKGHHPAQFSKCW
T5 sequence (Q8ND76 2-341 partner limits assumed): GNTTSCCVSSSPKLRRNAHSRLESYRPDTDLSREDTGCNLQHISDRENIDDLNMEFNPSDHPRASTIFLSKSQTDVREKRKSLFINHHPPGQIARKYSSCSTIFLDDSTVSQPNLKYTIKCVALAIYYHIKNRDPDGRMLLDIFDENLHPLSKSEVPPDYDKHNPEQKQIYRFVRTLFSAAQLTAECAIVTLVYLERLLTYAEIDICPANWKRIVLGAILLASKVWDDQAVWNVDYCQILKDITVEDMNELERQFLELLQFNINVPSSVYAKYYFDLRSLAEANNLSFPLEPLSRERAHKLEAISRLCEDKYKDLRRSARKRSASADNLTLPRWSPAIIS
CDK11B/Cyclin L2, sequence (P21127 whole entry): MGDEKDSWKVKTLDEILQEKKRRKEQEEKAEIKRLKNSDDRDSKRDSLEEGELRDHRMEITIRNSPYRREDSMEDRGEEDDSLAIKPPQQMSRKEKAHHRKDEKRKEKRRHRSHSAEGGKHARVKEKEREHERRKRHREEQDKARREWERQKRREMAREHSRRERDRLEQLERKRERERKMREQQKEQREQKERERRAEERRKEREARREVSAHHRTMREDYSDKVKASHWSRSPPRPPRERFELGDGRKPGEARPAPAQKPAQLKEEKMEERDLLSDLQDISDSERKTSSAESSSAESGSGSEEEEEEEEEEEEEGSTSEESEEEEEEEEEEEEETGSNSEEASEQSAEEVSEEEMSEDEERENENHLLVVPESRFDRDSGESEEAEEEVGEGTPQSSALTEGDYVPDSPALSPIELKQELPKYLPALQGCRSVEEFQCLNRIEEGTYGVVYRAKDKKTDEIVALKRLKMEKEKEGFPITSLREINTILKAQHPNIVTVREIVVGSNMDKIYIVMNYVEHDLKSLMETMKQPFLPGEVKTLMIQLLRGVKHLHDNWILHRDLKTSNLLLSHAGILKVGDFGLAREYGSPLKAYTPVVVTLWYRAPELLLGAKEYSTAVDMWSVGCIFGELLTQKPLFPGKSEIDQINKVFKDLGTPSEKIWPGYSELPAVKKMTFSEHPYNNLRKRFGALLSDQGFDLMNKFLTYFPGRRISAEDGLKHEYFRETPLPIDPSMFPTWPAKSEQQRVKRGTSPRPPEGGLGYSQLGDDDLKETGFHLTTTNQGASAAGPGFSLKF
CDK11B/Cyclin L2, sequence (Q96S94 whole entry partner): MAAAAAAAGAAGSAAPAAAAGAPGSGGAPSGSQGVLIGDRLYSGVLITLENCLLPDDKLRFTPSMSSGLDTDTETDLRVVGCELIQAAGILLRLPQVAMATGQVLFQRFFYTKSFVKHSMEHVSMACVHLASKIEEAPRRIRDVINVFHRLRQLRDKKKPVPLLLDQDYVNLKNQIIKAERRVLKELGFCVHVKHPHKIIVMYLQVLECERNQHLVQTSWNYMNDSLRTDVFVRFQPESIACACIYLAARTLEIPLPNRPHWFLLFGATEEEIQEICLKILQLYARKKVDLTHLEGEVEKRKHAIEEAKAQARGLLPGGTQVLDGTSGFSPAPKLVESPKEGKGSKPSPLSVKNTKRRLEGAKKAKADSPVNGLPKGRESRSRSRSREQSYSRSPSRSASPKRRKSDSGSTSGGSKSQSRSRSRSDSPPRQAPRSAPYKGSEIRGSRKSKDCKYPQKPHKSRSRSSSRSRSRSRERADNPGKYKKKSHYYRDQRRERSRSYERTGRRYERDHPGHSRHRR
CDK11B/Cyclin K, sequence (P21127 whole entry): as the sequence (P21127 whole entry) above
T9 sequence (Q14004 whole entry, the tested form may be a part): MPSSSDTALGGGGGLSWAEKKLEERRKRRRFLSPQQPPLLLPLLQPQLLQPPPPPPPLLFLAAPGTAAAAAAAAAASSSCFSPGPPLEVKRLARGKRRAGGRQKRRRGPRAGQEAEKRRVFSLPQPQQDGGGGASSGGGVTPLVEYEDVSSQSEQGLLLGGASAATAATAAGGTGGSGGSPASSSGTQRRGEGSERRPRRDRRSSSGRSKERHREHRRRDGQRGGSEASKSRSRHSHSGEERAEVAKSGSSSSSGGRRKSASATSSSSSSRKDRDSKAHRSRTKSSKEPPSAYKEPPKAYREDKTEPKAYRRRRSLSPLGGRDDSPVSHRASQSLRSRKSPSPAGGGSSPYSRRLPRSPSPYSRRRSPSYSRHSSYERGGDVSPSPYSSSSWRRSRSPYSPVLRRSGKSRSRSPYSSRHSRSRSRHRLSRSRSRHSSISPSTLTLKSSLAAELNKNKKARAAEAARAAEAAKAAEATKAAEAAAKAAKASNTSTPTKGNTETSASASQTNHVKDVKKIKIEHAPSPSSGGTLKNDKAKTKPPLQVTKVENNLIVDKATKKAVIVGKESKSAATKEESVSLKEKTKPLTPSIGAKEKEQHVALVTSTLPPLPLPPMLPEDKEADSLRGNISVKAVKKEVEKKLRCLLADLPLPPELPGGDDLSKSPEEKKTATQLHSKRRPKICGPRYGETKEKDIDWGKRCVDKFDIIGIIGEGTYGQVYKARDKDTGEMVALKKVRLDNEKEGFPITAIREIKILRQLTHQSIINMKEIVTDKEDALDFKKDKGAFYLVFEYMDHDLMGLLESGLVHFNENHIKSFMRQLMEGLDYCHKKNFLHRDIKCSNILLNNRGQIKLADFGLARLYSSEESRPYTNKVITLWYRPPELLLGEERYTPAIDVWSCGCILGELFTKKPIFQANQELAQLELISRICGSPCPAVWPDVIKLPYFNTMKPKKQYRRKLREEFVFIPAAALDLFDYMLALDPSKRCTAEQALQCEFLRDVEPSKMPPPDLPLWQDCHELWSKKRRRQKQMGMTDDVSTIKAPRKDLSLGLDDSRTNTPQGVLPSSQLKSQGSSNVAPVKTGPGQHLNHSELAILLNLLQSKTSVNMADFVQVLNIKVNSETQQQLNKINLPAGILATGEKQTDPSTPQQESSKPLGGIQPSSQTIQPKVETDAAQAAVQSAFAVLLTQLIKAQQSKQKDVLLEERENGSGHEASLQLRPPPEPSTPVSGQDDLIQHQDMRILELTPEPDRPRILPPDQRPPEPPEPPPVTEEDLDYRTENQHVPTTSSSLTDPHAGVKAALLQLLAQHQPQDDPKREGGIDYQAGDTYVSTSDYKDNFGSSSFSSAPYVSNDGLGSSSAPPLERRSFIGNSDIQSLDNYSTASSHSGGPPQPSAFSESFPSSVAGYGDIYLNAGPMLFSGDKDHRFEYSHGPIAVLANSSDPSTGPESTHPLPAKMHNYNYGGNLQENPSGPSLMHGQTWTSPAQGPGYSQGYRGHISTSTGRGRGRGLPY
T9 sequence (O75909 whole entry partner, the tested form may be a part): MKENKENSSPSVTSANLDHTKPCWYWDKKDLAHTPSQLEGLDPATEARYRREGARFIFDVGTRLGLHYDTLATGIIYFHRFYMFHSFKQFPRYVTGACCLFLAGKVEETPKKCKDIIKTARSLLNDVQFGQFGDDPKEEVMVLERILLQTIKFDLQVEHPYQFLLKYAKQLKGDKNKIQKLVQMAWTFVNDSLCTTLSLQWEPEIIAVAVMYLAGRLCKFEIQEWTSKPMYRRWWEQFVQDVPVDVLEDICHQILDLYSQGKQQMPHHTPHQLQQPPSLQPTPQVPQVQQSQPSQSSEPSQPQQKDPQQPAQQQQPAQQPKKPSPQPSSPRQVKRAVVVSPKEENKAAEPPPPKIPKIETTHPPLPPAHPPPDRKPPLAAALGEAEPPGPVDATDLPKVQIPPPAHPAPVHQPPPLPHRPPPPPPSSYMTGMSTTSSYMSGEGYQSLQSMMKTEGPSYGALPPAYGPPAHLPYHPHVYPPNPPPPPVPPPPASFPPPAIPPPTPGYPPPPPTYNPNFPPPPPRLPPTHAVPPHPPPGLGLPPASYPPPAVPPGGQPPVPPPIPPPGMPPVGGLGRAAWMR
T2 sequence (Q00526 whole entry, the tested form may be a part): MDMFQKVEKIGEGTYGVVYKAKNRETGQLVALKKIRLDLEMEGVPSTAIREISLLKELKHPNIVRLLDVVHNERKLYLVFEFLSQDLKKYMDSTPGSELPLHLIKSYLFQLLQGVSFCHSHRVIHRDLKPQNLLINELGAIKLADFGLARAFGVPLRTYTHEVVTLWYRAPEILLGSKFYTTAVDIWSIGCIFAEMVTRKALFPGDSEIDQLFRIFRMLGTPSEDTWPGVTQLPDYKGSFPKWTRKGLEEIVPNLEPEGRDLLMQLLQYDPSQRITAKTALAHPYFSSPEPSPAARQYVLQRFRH
T2 sequence (O96020 whole entry partner, the tested form may be a part): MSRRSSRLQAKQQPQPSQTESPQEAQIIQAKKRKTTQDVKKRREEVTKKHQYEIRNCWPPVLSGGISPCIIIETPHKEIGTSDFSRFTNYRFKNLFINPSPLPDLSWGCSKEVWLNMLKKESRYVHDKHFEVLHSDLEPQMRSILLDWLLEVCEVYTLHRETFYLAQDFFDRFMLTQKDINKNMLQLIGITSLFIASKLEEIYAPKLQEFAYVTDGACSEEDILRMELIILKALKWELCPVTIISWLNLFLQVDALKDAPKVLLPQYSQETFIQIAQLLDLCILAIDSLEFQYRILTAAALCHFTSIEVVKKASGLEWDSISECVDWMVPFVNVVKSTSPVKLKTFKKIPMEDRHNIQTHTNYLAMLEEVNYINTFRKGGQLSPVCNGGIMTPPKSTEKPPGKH

SMILES: N#CCc1ccc(Nc2nccc(Nc3cc(C4CC4)[nH]n3)n2)cc1 [compound 1, reference compound]
- EC50 (CDK2/Cyclin A1): 0.06 ± 0.0411 µM
- EC50 (CDK3/Cyclin E2): 0.0384 ± 0.0304 µM
- EC50 (CDK14/Cyclin Y): 0.0337 ± 0.0082 µM
- EC50 (CDK2/Cyclin E1): 0.0267 ± 0.0063 µM
- EC50 (CDK11B/Cyclin L2): 0.669 ± 0.406 µM
- EC50 (CDK15/Cyclin Y): 0.0934 ± 0.0417 µM
- EC50 (CDK11B/Cyclin K): 0.926 ± 0.649 µM
- EC50 (CDK11A/Cyclin K): 0.999 ± 0.476 µM
- EC50 (CDK6/Cyclin D3): 0.0453 ± 0.0356 µM
- EC50 (CDK2/Cyclin A2): 0.0281 ± 0.0075 µM
- EC50 (CDK13/Cyclin K): 0.0661 ± 0.0199 µM

SMILES: CC(C)(C)OC(=O)Nc1ccc(CNc2nccc(Nc3cc(C(=O)OC(C)(C)C)[nH]n3)n2)cc1 [43d, tert-butyl 3-((2-((4-((tert-butoxycarbonyl)amino)benzyl)amino)pyrimidin-4-yl)amino)-1H-pyrazole-5-carboxylate]
- EC50 (CDK2/Cyclin A1): 1.67 ± 0.42 µM
- EC50 (CDK3/Cyclin E2): 16.1 ± 7.62 µM
- EC50 (CDK14/Cyclin Y): 0.0721 µM
- EC50 (CDK2/Cyclin E1): 1.86 ± 0.582 µM
- EC50 (CDK11B/Cyclin L2): 3.58 ± 1.73 µM
- EC50 (CDK15/Cyclin Y): 0.302 µM
- EC50 (CDK11B/Cyclin K): 7.96 ± 3.29 µM
- EC50 (CDK11A/Cyclin K): 7.98 ± 3.74 µM
- EC50 (CDK6/Cyclin D3): 2.91 ± 1.57 µM
- EC50 (CDK2/Cyclin A2): 1.52 ± 0.449 µM

SMILES: COC(=O)c1cc(Nc2ccnc(NCc3ccc(NC(=O)OC(C)(C)C)cc3)n2)[nH]n1 [21i, methyl 5-((2-((4-((tert-butoxycarbonyl)amino)benzyl)amino)pyrimidin-4-yl)amino)-1H-pyrazole-3-carboxylate]
- EC50 (CDK2/Cyclin A1): 36.7 ± 3.31 µM
- EC50 (CDK3/Cyclin E2): 38.8 ± 4.64 µM
- EC50 (CDK14/Cyclin Y): 1.37 ± 0.374 µM
- EC50 (CDK2/Cyclin E1): 20.9 ± 5.69 µM
- EC50 (CDK11B/Cyclin L2): 16.7 ± 7.89 µM
- EC50 (CDK15/Cyclin Y): 2.09 ± 0.496 µM
- EC50 (CDK11B/Cyclin K): 22.9 ± 3.74 µM
- EC50 (CDK11A/Cyclin K): 21.1 ± 11 µM
- EC50 (CDK6/Cyclin D3): 6.55 ± 3.48 µM
- EC50 (CDK2/Cyclin A2): 11.7 ± 2.33 µM
- EC50 (CDK13/Cyclin K): 24.2 ± 5.88 µM

SMILES: CC(C)OC(=O)c1cc(Nc2ccnc(NCc3ccc(NC(=O)OC(C)(C)C)cc3)n2)n[nH]1 [42d, isopropyl 3-((2-((4-((tert-butoxycarbonyl)amino)benzyl)amino)pyrimidin-4-yl)amino)-1H-pyrazole-5-carboxylate]
- EC50 (CDK2/Cyclin A1): 32.5 ± 13.9 µM
- EC50 (CDK3/Cyclin E2): 26.9 ± 13.4 µM
- EC50 (CDK14/Cyclin Y): 0.0882 ± 0.0488 µM
- EC50 (CDK2/Cyclin E1): 2.6 ± 0.914 µM
- EC50 (CDK11B/Cyclin L2): 2.99 ± 1.33 µM
- EC50 (CDK15/Cyclin Y): 0.167 ± 0.0149 µM
- EC50 (CDK11B/Cyclin K): 3.86 ± 1.05 µM
- EC50 (CDK11A/Cyclin K): 3.1 ± 1.35 µM
- EC50 (CDK6/Cyclin D3): 2.08 ± 0.935 µM
- EC50 (CDK2/Cyclin A2): 2.84 ± 1.35 µM
- EC50 (CDK13/Cyclin K): 3.83 ± 2.28 µM
